According to paper PMC10392749, “PIP5K1C phosphoinositide kinase deficiency distinguishes PIKFYVE-dependent cancer cells from non-malignant cells” (Autophagy, 2023):

How the values were obtained:
PIP4K2C = target: T1, PIP4K2C (Homo sapiens, UniProt Q8TBX8); assay: KiNativ ATP-probe chemoproteomics in A375 cells treated with WX8; in vitro kinase binding assay (Fig. 2F); assay type: biochemical
T1 sequence (Q8TBX8 2-421): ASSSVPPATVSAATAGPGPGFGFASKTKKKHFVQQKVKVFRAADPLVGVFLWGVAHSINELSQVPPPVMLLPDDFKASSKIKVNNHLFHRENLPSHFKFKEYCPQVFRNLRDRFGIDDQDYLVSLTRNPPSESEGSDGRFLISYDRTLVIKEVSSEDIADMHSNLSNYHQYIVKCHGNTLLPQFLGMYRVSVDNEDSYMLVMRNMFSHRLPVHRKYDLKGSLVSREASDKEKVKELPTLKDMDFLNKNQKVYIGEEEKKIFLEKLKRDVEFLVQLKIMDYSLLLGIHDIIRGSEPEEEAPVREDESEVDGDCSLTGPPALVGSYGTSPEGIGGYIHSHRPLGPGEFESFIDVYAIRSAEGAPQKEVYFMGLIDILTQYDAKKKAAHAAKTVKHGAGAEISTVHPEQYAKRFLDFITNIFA

CHUK/IKKA = target: T2, CHUK/IKKA (Homo sapiens, UniProt O15111); assay: KiNativ ATP-probe chemoproteomics in A375 cells treated with WX8; assay type: cell-based; details: A-375
T2 sequence (O15111 1-745): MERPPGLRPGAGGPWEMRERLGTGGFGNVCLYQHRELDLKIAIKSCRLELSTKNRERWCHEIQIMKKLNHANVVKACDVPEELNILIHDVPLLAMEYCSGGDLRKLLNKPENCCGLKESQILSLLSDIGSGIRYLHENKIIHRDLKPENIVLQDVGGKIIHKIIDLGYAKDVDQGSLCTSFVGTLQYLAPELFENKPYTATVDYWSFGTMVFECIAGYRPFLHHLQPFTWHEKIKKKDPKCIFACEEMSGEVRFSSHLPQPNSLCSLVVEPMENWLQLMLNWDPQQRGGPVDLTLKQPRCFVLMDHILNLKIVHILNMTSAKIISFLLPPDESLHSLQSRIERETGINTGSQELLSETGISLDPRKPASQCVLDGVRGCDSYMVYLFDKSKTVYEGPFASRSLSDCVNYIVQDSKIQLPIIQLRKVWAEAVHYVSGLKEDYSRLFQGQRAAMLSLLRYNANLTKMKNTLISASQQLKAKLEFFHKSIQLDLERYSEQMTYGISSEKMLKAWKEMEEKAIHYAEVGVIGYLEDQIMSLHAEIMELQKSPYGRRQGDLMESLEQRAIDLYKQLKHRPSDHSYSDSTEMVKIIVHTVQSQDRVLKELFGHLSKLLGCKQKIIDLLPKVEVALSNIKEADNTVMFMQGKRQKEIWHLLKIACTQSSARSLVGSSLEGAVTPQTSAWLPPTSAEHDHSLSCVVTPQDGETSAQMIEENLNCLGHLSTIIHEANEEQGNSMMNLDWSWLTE

PIKFYVE = PIKFYVE (Homo sapiens, UniProt Q9Y2I7); assay: KiNativ ATP-probe chemoproteomics in A375 cells treated with WX8; in vitro kinase binding assay (Fig. 2F); assay type: cell-based; details: A-375
Chain of PIKFYVE (Q9Y2I7 2-2098): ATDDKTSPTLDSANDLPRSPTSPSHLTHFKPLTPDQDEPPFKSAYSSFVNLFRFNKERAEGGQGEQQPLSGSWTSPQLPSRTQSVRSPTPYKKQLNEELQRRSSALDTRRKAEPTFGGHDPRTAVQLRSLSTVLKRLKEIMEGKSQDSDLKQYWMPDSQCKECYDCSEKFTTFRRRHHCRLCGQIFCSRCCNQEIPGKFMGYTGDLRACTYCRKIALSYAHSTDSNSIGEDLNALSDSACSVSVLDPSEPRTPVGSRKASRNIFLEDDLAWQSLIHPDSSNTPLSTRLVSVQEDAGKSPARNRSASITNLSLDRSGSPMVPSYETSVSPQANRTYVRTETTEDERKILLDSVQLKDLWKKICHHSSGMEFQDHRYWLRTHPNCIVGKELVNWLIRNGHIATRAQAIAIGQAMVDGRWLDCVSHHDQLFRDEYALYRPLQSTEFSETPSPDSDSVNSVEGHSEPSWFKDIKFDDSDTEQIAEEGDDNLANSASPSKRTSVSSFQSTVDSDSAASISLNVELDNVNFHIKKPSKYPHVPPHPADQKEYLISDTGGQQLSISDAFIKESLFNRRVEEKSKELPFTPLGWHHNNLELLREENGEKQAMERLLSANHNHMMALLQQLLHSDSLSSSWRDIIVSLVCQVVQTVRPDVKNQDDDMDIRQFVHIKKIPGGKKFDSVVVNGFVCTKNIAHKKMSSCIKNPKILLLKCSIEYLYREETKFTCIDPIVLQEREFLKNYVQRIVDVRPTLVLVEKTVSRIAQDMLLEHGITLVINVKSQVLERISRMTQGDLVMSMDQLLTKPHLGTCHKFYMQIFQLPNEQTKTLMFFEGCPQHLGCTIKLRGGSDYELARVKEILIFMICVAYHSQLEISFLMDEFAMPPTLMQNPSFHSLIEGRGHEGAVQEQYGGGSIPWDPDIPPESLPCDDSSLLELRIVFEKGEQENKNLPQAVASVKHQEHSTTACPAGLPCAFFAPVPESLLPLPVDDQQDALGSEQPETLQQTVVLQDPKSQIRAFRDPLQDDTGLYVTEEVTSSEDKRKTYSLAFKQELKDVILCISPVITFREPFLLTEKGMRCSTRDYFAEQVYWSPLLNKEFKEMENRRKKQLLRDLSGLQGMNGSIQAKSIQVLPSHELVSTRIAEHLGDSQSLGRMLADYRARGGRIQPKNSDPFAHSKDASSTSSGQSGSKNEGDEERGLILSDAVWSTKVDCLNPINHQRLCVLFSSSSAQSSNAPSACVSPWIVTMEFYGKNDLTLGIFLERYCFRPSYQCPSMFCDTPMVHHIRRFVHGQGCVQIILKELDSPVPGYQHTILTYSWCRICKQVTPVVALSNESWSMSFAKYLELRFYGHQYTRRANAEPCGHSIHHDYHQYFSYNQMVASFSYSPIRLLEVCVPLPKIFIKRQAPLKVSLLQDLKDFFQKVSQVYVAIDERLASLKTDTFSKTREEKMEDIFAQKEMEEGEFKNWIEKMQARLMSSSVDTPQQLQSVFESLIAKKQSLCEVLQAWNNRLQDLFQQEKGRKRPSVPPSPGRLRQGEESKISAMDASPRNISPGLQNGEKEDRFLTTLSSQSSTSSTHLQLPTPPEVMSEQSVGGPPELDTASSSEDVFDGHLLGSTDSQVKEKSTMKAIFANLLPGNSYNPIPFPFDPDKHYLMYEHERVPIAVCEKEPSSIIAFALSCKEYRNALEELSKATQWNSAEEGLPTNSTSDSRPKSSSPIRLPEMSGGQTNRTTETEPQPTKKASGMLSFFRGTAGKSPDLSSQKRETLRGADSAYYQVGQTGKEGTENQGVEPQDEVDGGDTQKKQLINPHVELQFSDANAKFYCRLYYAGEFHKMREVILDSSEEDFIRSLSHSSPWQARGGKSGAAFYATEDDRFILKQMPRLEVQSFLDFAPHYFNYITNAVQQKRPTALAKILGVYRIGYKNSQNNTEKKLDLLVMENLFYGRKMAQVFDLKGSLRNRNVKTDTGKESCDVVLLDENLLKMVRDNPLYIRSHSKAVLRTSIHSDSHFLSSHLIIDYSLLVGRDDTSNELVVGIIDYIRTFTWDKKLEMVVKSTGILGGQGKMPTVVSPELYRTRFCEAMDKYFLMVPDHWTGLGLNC

IC50 (PIP4K2C): ~1000 nM
inhibition at 1 µM (CHUK/IKKA): 39%
inhibition at 1 µM (PIKFYVE): 97%
SMILES: C(=NNc1nc(Nc2ccccc2)nc(N2CCOCC2)n1)c1c[nH]c2ccccc12 [WX8, 1H-indole-3-carbaldehyde (4-anilino-6-[4-morpholinyl]-1,3,5-triazin-2-yl)hydrazone]
